From patent US12077503B2, “Substituted cyclic amides and their use as herbicides” (FMC CORPORATION, priority 2015, dated 2024)

Tests used:
Experiment in all cases: Test C preemergence
Assay type in all cases: in vivo
[1] = system: Galium (catchweed bedstraw, Galium aparine); conditions: for Plant response rating, Galium: scale 0 to 100, 0 no effect, 100 complete control
Procedure, shortened: (§1)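 After treatment with surfactant-containing formulations, either preemergence to seeds in loam-sand soil or postemergence to potted seedlings at 2–18 cm, plants were kept 13–15 d in a greenhouse. Observers then compared them with controls and assigned ratings, 0 signifying no effect and 100 complete control.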

[2] = system: barnyardgrass (Echinochloa crus-galli); conditions: for Plant response rating, Barnyardgrass: scale 0 to 100, 0 no effect, 100 complete control
Procedure, shortened: as §1

[3] = system: blackgrass (Alopecurus myosuroides); conditions: for Plant response rating, Blackgrass: scale 0 to 100, 0 no effect, 100 complete control
Procedure, shortened: as §1

corn (Zea mays) = conditions: for Plant response rating, Corn: scale 0 to 100, 0 no effect, 100 complete control
Procedure, shortened: as §1

[4] = system: crabgrass, large (large crabgrass, Digitaria sanguinalis); conditions: for Plant response rating, Crabgrass, Large: scale 0 to 100, 0 no effect, 100 complete control
Procedure, shortened: as §1

[5] = system: foxtail, giant (giant foxtail, Setaria faberii); conditions: for Plant response rating, Foxtail, Giant: scale 0 to 100, 0 no effect, 100 complete control
Procedure, shortened: as §1

[6] = system: johnsongrass (Sorghum halepense); conditions: for Plant response rating, Johnsongrass: scale 0 to 100, 0 no effect, 100 complete control
Procedure, shortened: as §1

[7] = system: morningglory (Ipomoea coccinea); conditions: for Plant response rating, Morningglory: scale 0 to 100, 0 no effect, 100 complete control
Procedure, shortened: as §1

[8] = system: nutsedge, yellow (yellow nutsedge, Cyperus esculentus); conditions: for Plant response rating, Nutsedge, Yellow: scale 0 to 100, 0 no effect, 100 complete control
Procedure, shortened: as §1

[9] = system: oilseed rape (Brassica napus); conditions: for Plant response rating, Oilseed Rape: scale 0 to 100, 0 no effect, 100 complete control
Procedure, shortened: as §1

[10] = system: pigweed (Amaranthus retroflexus); conditions: for Plant response rating, Pigweed: scale 0 to 100, 0 no effect, 100 complete control
Procedure, shortened: as §1

[11] = system: ragweed (common ragweed, Ambrosia elatior); conditions: for Plant response rating, Ragweed: scale 0 to 100, 0 no effect, 100 complete control
Procedure, shortened: as §1

[12] = system: ryegrass, Italian (Italian ryegrass, Lolium multiflorum); conditions: for Plant response rating, Ryegrass, Italian: scale 0 to 100, 0 no effect, 100 complete control
Procedure, shortened: as §1

soybean (Glycine max) = conditions: for Plant response rating, Soybean: scale 0 to 100, 0 no effect, 100 complete control
Procedure, shortened: as §1

[13] = system: velvetleaf (Abutilon theophrasti); conditions: for Plant response rating, Velvetleaf: scale 0 to 100, 0 no effect, 100 complete control
Procedure, shortened: as §1

[14] = system: waterhemp (common waterhemp, Amaranthus rudis); conditions: for Plant response rating, Waterhemp: scale 0 to 100, 0 no effect, 100 complete control
Procedure, shortened: as §1

[15] = system: wheat (winter wheat, Triticum aestivum); conditions: for Plant response rating, Wheat: scale 0 to 100, 0 no effect, 100 complete control
Procedure, shortened: as §1

[16] = 31 g ai/ha, 0 is no effect, 100 is complete control

CN1CC(c2ccc(F)c(F)c2)C(C(=O)Nc2ccccc2C(F)(F)F)C1=O (centres unmarked) [Compound 641]
Plant response rating (scale of 0 to 100), Galium [1, 16]: 0 | Plant response rating, Galium ([1]; 62 g ai/ha): 30 | Plant response rating, Galium ([1]; 125 g ai/ha): 90 | Plant response rating, Galium ([1]; 250 g ai/ha): 85 | Plant response rating (scale of 0 to 100), Barnyardgrass [2, 16]: 85 | Plant response rating, Barnyardgrass ([2]; 62 g ai/ha): 90 | Plant response rating, Barnyardgrass ([2]; 125 g ai/ha): 90 | Plant response rating, Barnyardgrass ([2]; 250 g ai/ha): 95 | Plant response rating (scale of 0 to 100), Blackgrass [3, 16]: 0 | Plant response rating, Blackgrass ([3]; 62 g ai/ha): 45 | Plant response rating, Blackgrass ([3]; 125 g ai/ha): 30 | Plant response rating, Blackgrass ([3]; 250 g ai/ha): 70 | Plant response rating (scale of 0 to 100), Corn (corn (Zea mays); [16]): 0 | Plant response rating, Corn (corn (Zea mays); 62 g ai/ha): 0 | Plant response rating, Corn (corn (Zea mays); 125 g ai/ha): 0 | Plant response rating, Corn (corn (Zea mays); 250 g ai/ha): 10 | Plant response rating (scale of 0 to 100), Crabgrass, Large [4, 16]: 98 | Plant response rating, Crabgrass, Large ([4]; 62 g ai/ha): 100 | Plant response rating, Crabgrass, Large ([4]; 125 g ai/ha): 100 | Plant response rating, Crabgrass, Large ([4]; 250 g ai/ha): 100 | Plant response rating (scale of 0 to 100), Foxtail, Giant [5, 16]: 90 | Plant response rating, Foxtail, Giant ([5]; 62 g ai/ha): 90 | Plant response rating, Foxtail, Giant ([5]; 125 g ai/ha): 90 | Plant response rating, Foxtail, Giant ([5]; 250 g ai/ha): 95 | Plant response rating (scale of 0 to 100), Johnsongrass [6, 16]: 0 | Plant response rating, Johnsongrass ([6]; 62 g ai/ha): 0 | Plant response rating, Johnsongrass ([6]; 125 g ai/ha): 10 | Plant response rating, Johnsongrass ([6]; 250 g ai/ha): 60 | Plant response rating (scale of 0 to 100), Morningglory [7, 16]: 0 | Plant response rating, Morningglory ([7]; 62 g ai/ha): 0 | Plant response rating, Morningglory ([7]; 125 g ai/ha): 0 | Plant response rating, Morningglory ([7]; 250 g ai/ha): 0 | Plant response rating (scale of 0 to 100), Nutsedge, Yellow [8, 16]: 0 | Plant response rating, Nutsedge, Yellow ([8]; 62 g ai/ha): 0 | Plant response rating, Nutsedge, Yellow ([8]; 125 g ai/ha): 0 | Plant response rating, Nutsedge, Yellow ([8]; 250 g ai/ha): 0 | Plant response rating (scale of 0 to 100), Oilseed Rape [9, 16]: 80 | Plant response rating, Oilseed Rape ([9]; 62 g ai/ha): 85 | Plant response rating, Oilseed Rape ([9]; 125 g ai/ha): 85 | Plant response rating, Oilseed Rape ([9]; 250 g ai/ha): 90 | Plant response rating (scale of 0 to 100), Pigweed [10, 16]: 0 | Plant response rating, Pigweed ([10]; 62 g ai/ha): 25 | Plant response rating, Pigweed ([10]; 125 g ai/ha): 60 | Plant response rating, Pigweed ([10]; 250 g ai/ha): 70 | Plant response rating (scale of 0 to 100), Ragweed [11, 16]: 0 | Plant response rating, Ragweed ([11]; 62 g ai/ha): 25 | Plant response rating, Ragweed ([11]; 125 g ai/ha): 30 | Plant response rating, Ragweed ([11]; 250 g ai/ha): 45 | Plant response rating (scale of 0 to 100), Ryegrass, Italian [12, 16]: 0 | Plant response rating, Ryegrass, Italian ([12]; 62 g ai/ha): 10 | Plant response rating, Ryegrass, Italian ([12]; 125 g ai/ha): 35 | Plant response rating, Ryegrass, Italian ([12]; 250 g ai/ha): 70 | Plant response rating (scale of 0 to 100), Soybean (soybean (Glycine max); [16]): 0 | Plant response rating, Soybean (soybean (Glycine max); 62 g ai/ha): 0 | Plant response rating, Soybean (soybean (Glycine max); 125 g ai/ha): 10 | Plant response rating, Soybean (soybean (Glycine max); 250 g ai/ha): 100 | Plant response rating (scale of 0 to 100), Velvetleaf [13, 16]: 0 | Plant response rating, Velvetleaf ([13]; 62 g ai/ha): 35 | Plant response rating, Velvetleaf ([13]; 125 g ai/ha): 25 | Plant response rating, Velvetleaf ([13]; 250 g ai/ha): 45 | Plant response rating (scale of 0 to 100), Waterhemp [14, 16]: 0 | Plant response rating, Waterhemp ([14]; 62 g ai/ha): 0 | Plant response rating, Waterhemp ([14]; 125 g ai/ha): 45 | Plant response rating, Waterhemp ([14]; 250 g ai/ha): 70 | Plant response rating (scale of 0 to 100), Wheat [15, 16]: 5 | Plant response rating, Wheat ([15]; 62 g ai/ha): 0 | Plant response rating, Wheat ([15]; 125 g ai/ha): 35 | Plant response rating, Wheat ([15]; 250 g ai/ha): 70
